Source: patent US12617783B2, “Heterocyclic GLP-1R agonists” (BIOMEA FUSION, INC., priority 2024, dated 2026)

target: T1, human GLP-1R (Homo sapiens, UniProt P43220); assay: GLP-1R cAMP assay (Example B1a, HTRF, 30 min at room temperature); type: cell-based; conditions: cAMP accumulation in HEK293 expressing human GLP-1R, no BETP, 30 min room temperature (Method B1a, compounds ID 1-609), Table 1; read-out: EC50
T1 construct: host or cells: HEK293
Summary of the method: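 Competitive HTRF read-out of cAMP after 30 min room-temperature stimulation, BETP absent, of human GLP-1R-HEK293 cells (1,000/well) in HEPES buffer with 500 μM IBMX and 0.1% BSA. Activation normalised to GLP-1(7-37) positive control. EC50 from 4-parameter non-linear regression.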

T1 sequence (P43220 24-463): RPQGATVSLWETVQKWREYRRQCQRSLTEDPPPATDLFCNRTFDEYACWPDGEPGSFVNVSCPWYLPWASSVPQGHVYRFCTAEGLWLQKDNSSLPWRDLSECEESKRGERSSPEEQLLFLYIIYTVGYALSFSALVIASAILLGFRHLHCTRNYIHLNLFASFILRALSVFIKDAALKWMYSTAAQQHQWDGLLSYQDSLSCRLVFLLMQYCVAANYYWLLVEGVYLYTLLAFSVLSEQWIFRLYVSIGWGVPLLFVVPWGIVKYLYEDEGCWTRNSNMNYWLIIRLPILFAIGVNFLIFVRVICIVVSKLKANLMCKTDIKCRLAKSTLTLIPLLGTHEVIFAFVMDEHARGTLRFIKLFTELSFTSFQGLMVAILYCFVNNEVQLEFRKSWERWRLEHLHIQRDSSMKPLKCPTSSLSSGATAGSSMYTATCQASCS

Row | EC50 | Structure (SMILES)
1 | > 10 µM | Cc1cc(-n2nc3c(c2-c2ncn(-c4ccc5c(cnn5C)c4F)c2C)[C@H](C)N(C(=O)c2cc4cc([C@H]5CCOC(C)(C)C5)ccc4n2C2(c4noc(=O)[nH]4)CC2)CC3)cc(C)c1F [Compound 30, 3-(1-(5-((S)-2,2-dimethyltetrahydro-2H-pyran-4-yl)-2-((4S)-3-(1-(4-fluoro-1-methyl-1H-indazol-5-yl)-5-methyl-1H-imidazol-4-yl)-2-(4-fluoro-3,5-dimethylphenyl)-4-methyl-4,5,6,7-tetrahydro-2H-pyrazolo[4,3-c]pyridine-5-carbonyl)-1H-indol-1-yl)cyclopropyl)-1,2,4-oxadiazol-5 (4H)-one]
2 | 0.839 µM | Cc1cc(-n2nc3c(c2-n2ccn(-c4ccc5c(cnn5C)c4F)c2=O)[C@@H]2CCC[C@H](C3)N2S(=O)(=O)c2cc3cc([C@@H]4CCOC5(CC5)C4)ccc3n2[C@@]2(c3noc(=O)[nH]3)C[C@@H]2C)cc(C)c1F [Compound 604, 3-[(1S,2S)-1-[2-[[(1S,8R)-4-(4-fluoro-3,5-dimethyl-phenyl)-3-[3-(4-fluoro-1-methyl-indazol-5-yl)-2-oxo-imidazol-1-yl]-4,5,12-triazatricyclo[6.3.1.02,6]dodeca-2,5-dien-12-yl]sulfonyl]-5-[(7R)-4-oxaspiro[2.5]octan-7-yl]indol-1-yl]-2-methyl-cyclopropyl]-4H-1,2,4-oxadiazol-5-one]
3 | 0.212 µM | Cc1cc(-n2nc3c(c2-n2ccn(-c4cc(F)c5c(cnn5C)c4F)c2=O)[C@@H]2COC[C@H](C3)N2C(=O)c2cc3cc([C@H]4CCOC(C)(C)C4)ccc3n2[C@@]2(c3noc(=O)[nH]3)C[C@@H]2C)cc(C)c1F [Compound 224, 3-[(1S,2S)-1-[2-[(1R,8S)-3-[3-(4,7-difluoro-1-methyl-indazol-5-yl)-2-oxo-imidazol-1-yl]-4-(4-fluoro-3,5-dimethyl-phenyl)-10-oxa-4,5,12-triazatricyclo[6.3.1.02,6]dodeca-2,5-diene-12-carbonyl]-5-[(4S)-2,2-dimethyltetrahydropyran-4-yl]indol-1-yl]-2-methyl-cyclopropyl]-4H-1,2,4-oxadiazol-5-one]
4 | > 10 µM | Cc1cc(-n2nc3c(c2-c2ncn(-c4ccc5c(cnn5C)c4F)c2C)[C@H](C)N(C(=O)c2cc4cc(C5CCC(F)(F)CC5)ccc4n2C2(c4noc(=O)[nH]4)CC2)CC3)cc(C)c1F [Compound 106, 3-[1-[5-(4,4-difluorocyclohexyl)-2-[(4S)-2-(4-fluoro-3,5-dimethyl-phenyl)-3-[1-(4-fluoro-1-methyl-indazol-5-yl)-5-methyl-imidazol-4-yl]-4-methyl-6,7-dihydro-4H-pyrazolo[4,3-c]pyridine-5-carbonyl]indol-1-yl]cyclopropyl]-4H-1,2,4-oxadiazol-5-one]

Row | Structure (SMILES) | EC50
5 | Cc1cc(-n2nc3c(c2-n2ccn(-c4ccc5c(cnn5C)c4F)c2=O)[C@H]2CCC[C@@H](C3)N2C(=O)c2cc3cc([C@H]4CCOC(C)(C)C4)ccc3n2[C@@]2(c3noc(=O)[nH]3)C[C@@H]2C)cc(C)c1F [Compound 430, 3-((1S,2S)-1-(5-((S)-2,2-dimethyltetrahydro-2H-pyran-4-yl)-2-((4R,8S)-3-(3-(4-fluoro-1-methyl-1H-indazol-5-yl)-2-oxo-2,3-dihydro-1H-imidazol-1-yl)-2-(4-fluoro-3,5-dimethylphenyl)-4,5,6,7,8,9-hexahydro-2H-4,8-epiminocycloocta [c]pyrazole-10-carbonyl)-1H-indol-1-yl)-2-methylcyclopropyl)-1,2,4-oxadiazol-5 (4H)-one] | ≥ 10 µM

same assay, conditions: text to Table 1d, bridge atoms configured out of the plane or toward the reader

Row | Structure (SMILES) | potency
6 | Cc1cc(-n2nc3c(c2-n2ccn(-c4ccc5c(cnn5C)c4F)c2=O)[C@H]2CCC[C@@H](C3)N2C(=O)c2cc3cc([C@H]4CCOC(C)(C)C4)ccc3n2[C@@]2(c3noc(=O)[nH]3)C[C@@H]2C)cc(C)c1F [Compound 430, 3-((1S,2S)-1-(5-((S)-2,2-dimethyltetrahydro-2H-pyran-4-yl)-2-((4R,8S)-3-(3-(4-fluoro-1-methyl-1H-indazol-5-yl)-2-oxo-2,3-dihydro-1H-imidazol-1-yl)-2-(4-fluoro-3,5-dimethylphenyl)-4,5,6,7,8,9-hexahydro-2H-4,8-epiminocycloocta [c]pyrazole-10-carbonyl)-1H-indol-1-yl)-2-methylcyclopropyl)-1,2,4-oxadiazol-5 (4H)-one] | little or no potency
